“Also recorded” adds a separate entry of the source.
Experiments:
μOR [1] = target: T1, μOR (Homo sapiens, UniProt P35372); experiment: BRET-based cAMP accumulation assay (SAR of PZM21-29); type: cell-based
μOR:N127C = target: T2, μOR:N127C (Homo sapiens, UniProt P35372, N129C); experiment: Radioligand depletion assay, irreversible binding at μOR:N127C; conditions: wash-resistant inhibition of radioligand binding
T2 construct: expressed in transfected cells; host or cells: HEK 293

κOR = target: T3, κOR (Homo sapiens, UniProt P41145); experiment: Gi/o Glosensor assay at κOR; type: cell-based
T3 construct: NIMH Psychoactive Drug Screening Program (PDSP)

μOR [2] = target: T1, μOR; experiment: β-arrestin recruitment at μOR without GRK2; type: cell-based
μOR [3] = target: T1, μOR; experiment: β-arrestin recruitment at μOR with GRK2 co-expression; type: cell-based
C57BL/6J mice [4] = experiment: Conditioned place preference; conditions: mouse, in vivo
Experimental: On day 1 (preconditioning day), mice were placed in the central chamber and allowed to explore freely for 30 minutes. Time spent in each compartment was used to estimate baseline chamber preferences and mice showing specific chamber bias more than 70% were not studied further. On days 2-9 (conditioning days) mice were injected with either vehicle or drug and paired with either the white mesh or the black rod chambers. All mice received vehicle on days 2, 4, 6, 8 and drug on days 3, 5, 7, 9. On day 10 (test day), mice were again placed in the central chamber as on day 1 and allowed to explore freely for 30 minutes. Time spent in each chamber was expressed as percentage preference.

C57BL/6J mice [5] = experiment: Mouse whole body plethysmography (respiration); conditions: equianalgesic doses of PZM21, TRV130 and morphine (40 mg/kg, […], 10 mg/kg)

T1 sequence (P35372 whole entry): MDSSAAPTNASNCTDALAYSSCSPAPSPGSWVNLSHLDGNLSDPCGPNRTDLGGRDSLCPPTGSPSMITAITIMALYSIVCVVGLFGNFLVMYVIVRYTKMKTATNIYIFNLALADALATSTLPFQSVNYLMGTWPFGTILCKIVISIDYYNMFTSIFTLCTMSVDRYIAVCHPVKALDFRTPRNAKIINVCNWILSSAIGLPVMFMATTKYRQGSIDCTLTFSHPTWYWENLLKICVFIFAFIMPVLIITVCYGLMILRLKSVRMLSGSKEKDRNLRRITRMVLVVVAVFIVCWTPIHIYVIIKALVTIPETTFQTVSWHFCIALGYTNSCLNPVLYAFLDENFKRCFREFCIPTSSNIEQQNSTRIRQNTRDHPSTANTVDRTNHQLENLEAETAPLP
T2 sequence (P35372 whole entry N129C): as the sequence (P35372 whole entry) above, with N129C counted along it
T3 sequence (P41145 whole entry): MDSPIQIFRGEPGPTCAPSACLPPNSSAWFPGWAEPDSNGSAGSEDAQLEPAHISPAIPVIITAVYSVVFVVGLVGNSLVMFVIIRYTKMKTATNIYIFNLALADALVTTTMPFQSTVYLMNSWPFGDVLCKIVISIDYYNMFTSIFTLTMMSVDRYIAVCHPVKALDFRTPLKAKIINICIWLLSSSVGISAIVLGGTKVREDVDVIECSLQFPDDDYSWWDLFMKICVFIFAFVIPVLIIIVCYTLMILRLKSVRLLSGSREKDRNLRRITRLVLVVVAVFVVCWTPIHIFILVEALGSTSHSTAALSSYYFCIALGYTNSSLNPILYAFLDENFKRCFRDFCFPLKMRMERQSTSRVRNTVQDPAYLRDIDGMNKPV

SMILES | efficacy and potency as agonist (in words) (μOR [1]) | irreversible binding to μOR:N127C (μOR:N127C) | KOR agonist activity (in words) (κOR) | β-arrestin2 recruitment in the absence of GRK2 (in words) (μOR [2]) | arrestin recruitment with over-expressed GRK2 (in words) (μOR [3]) | conditioned place preference (C57BL/6J mice [4]) | respiration frequency (C57BL/6J mice [5])
CN(C)[C@H](CNC(=O)NCCc1cn(CCSSCCN=[N+]=[N-])nn1)Cc1ccc(O)cc1 [PZM29, (S)-1-(2-(1-(2-((2-Azidoethyl)disulfanyl)ethyl)-1H-1,2,3-triazol-4-yl)ethyl)-3-(2-(dimethylamino)-3-(4-hydroxyphenyl)propyl)urea x CF3COOH] | retains its efficacy as an agonist | binds to the μOR:N127C variant irreversibly; also recorded: binds irreversibly to this mutant | – | – | – | – | –
COc1ccsc1CNCC[C@@]1(c2ccccn2)CCOC2(CCCC2)C1 [TRV130, reference compound] | – | – | activates κOR with similar potency to morphine | no β-arrestin2 recruitment | arrestin recruitment | not significant relative to vehicle | significantly depresses respiration at 15 minutes
